Data: patent US4552879A, “Benzoheterocyclic compounds and pharmaceutical composition thereof” (Otsuka Pharmaceutical Co., Ltd., priority 1980, dated 1985)
Converted amounts (≈) assume the structure as drawn. Where two headings read alike, the source gives them in different places.

Columns and labels:
Assay in all cases: Minimum inhibitory concentration, serial dilution method on agar plate
Format in all cases: cell-based
[1] = test system: Escherichia Coli NIHJ JC-2 (IFO 12734); details: read-out: Minimum Inhibitory Concentration
[2] = test system: Shigella sonnei EW 33
Method: The antimicrobial activity of the following test compounds on various test organisms listed below was determined by the serial dilution method on agar plate (Heart Infusion agar produced by Difco Co.) (see CHEMOTHERAPY 22, pp. 1126-1128 (1974)), and the minimum inhibitory concentrations (mcg/ml) obtained are shown in Tables 1, 2 and 3 below.
A sample of each test organism was prepared so that the population of the organism was 1×10^8 cells/ml (O.D. 660 mμ=0.07 to 0.16) and 1×10^6 cells/ml (which was obtained by diluting 100 fold the above 1×10^8 cells/ml preparation).

[3] = test system: Serratia marcescens IFO 12648; details: read-out: Minimum Inhibitory Concentration
[4] = test system: Bacillus cereus IFO 3001
[5] = test system: Staphylococcus aureus No. 286
[6] = test system: Micrococcus flavus ATCC 10240a; details: ATCC10240A

CC1CCc2c(N3CCC(O)CC3)c(F)cc3c(=O)c(C(=O)O)cn1c23 (stereo not drawn) [Compound 1, 9-Fluoro-8-(4-hydroxy-1-piperidyl)-5-methyl-6,7-dihydro-1-oxo-1H,5H-benzo[ij]quinolizine-2-carboxylic acid]
MIC ([1]; 1×10^6 cells/ml): 0.39 µg/mL (≈ 1.08 µM)
MIC ([1]; 1×10^8 cells/ml): 0.39 µg/mL (≈ 1.08 µM)
MIC ([2]; EW33, 1×10^6 cells/ml): 0.2 µg/mL (≈ 0.555 µM)
MIC ([2]; EW33, 1×10^8 cells/ml): 0.2 µg/mL (≈ 0.555 µM)
MIC ([3]; IFO12648, 1×10^6 cells/ml): 0.78 µg/mL (≈ 2.16 µM)
MIC ([3]; IFO12648, 1×10^8 cells/ml): 1.56 µg/mL (≈ 4.33 µM)
Minimum Inhibitory Concentration ([4]; 1×10^6 cells/ml): 0.10 µg/mL
MIC ([4]; Bacillus cereus, IFO3001, 1×10^8 cells/ml): 0.1 µg/mL (≈ 0.277 µM)
MIC ([5]; NO.286, 1×10^6 cells/ml): 0.05 µg/mL (≈ 0.139 µM)
MIC ([5]; NO.286, 1×10^8 cells/ml): 0.1 µg/mL (≈ 0.277 µM)
MIC ([6]; 1×10^6 cells/ml): 0.2 µg/mL (≈ 0.555 µM)
MIC ([6]; 1×10^8 cells/ml): 0.39 µg/mL (≈ 1.08 µM)
